# Test results: US9266903B2, “Polymorphs of 2-(4-(2-(1-isopropyl-3-methyl-1H-1,2,4-triazole-5-yl)-5,6-dihydrobenzo[F]imidazo [1,2-D][1,4]oxazepin-9-yl)-1H-pyrazol-1-yl)-2-methylpropanamide, methods of production, and pharmaceutical uses thereof” (Genentech, Inc., priority 2013, dated 2016)
# Legend:
# [1] = Stability of solvate/hydrate forms in the absence of solvent or at low humidity; format: physicochemical
# [2] = Slurry interconversion experiments in pure isoamyl alcohol; format: physicochemical; settings: Form B versus Form C in pure isoamyl alcohol
# Experimental: Form C was derived only from isoamyl alcohol and was initially formed at 5° C. It is crystalline by XRPD (FIG. 13) and PLM. […] This weight loss was divided into two broad steps: a 5.2% weight loss was observed from ambient to 105° C. and an additional 9.8% weight loss was observed from 105-125° C. (bp of isoamyl alcohol: 130° C.). The theoretical weight loss for a mono-solvate is 16.1% and 8.7% for a hemi-solvate. The crystal structure of Form C was solved. Form C is the mono-isoamyl alcoholate. […] The solvate, Form C, was favored at temperatures of 15° C. or below.
# [3] = Slurry in water (conversion to hydrate); format: physicochemical
# [4] = Solid-state physical form stability (accelerated 40° C./75% RH, high humidity, API stability studies); format: physicochemical
# [5] = Dynamic vapor sorption (DVS); format: physicochemical; settings: for weight gain in DVS / dynamic moisture sorption experiment: at 95% RH
# Experimental: Automated vapor sorption data were collected on a TA Instruments Q5000SA vapor sorption analyzer. NaCl and PVP were used as calibration standards. Samples were not dried prior to analysis. Adsorption and desorption data were collected at 25° C. over a range from 5 to 95% RH at 10% RH increments under a nitrogen purge. Samples were held at the corresponding RH for 1 hour prior to moving to the next RH range. Data were not corrected for the initial moisture content of the samples.
# [6] = Solubility in solvents/solvent mixtures at two temperatures (visual dissolution, HPLC for suspensions); format: physicochemical
# Experimental: The solubility of GDC-0032 was determined in various solvents/solvent mixtures at two different temperatures: Ethanol absolute, Methanol, Isopropanol, Acetone, Ethyl Acetate, Isopropyl acetate, Tetrahydrofuran, 2-Butanone, Methanol/Water (50/50), 2,2,2-Trifluoroethanol (TFE), 2-Butanone, TFE/Ethyl acetate (50/50), TFE/Acetone (50/50), TFE/Water (50/50), Acetonitrile, Acetonitrile/water (50/50), Acetone/water (50/50), Tert-butyl methyl ether, n-Heptane, Ethanol/Ethyl acetate (50/50), Ethanol/Acetone (50/50), Methanol/water (90/10), Ethanol/Acetonitrile (50/50).
# For each experiment, approximately 5-10 mg of material was weighed in 40 mL vials. […] In each vial, the solvent was added to the solid in steps of 50 μL until dissolution or until a minimum concentration of 0.2 mg/mL was reached. Dissolution was assessed visually at two temperatures, room temperature (RT) and a higher temperature (Tmax=50 or 70° C., selected such that the boiling point of the solvent was higher than Tmax). Solubility was measured by HPLC for suspensions.
# [7] = Solubility of GDC-0032 in methanol at high temperature; format: physicochemical; settings: approximately 15 mg in 500 mL methanol, 24 hours equilibration
# Experimental: Solubility of GDC-0032 in methanol at high temperature: Solubility of GDC-0032 in methanol at 45° C. and 55° C. was measured. Two slurries were prepared with approximately 15 mg of starting material and 500 mL of methanol. The slurries were subsequently placed in two ovens, at 45° C. and 55° C. each. After 24 hours of equilibration the two slurries were visually checked. In both cases the dissolution was not complete. The solids were separated from the mother liquor and were harvested both wet and dried for XRPD and digital imaging. The mother liquor was evaporated and the solids were also analyzed by XRPD and digital imaging.
# [8] = Solubility assessment as a function of pH and in different buffers and formulation vehicles; format: physicochemical
# Source text: The solubility behavior of GDC-0032 API is summarized as a Function of pH and in Different Buffers and Formulation Vehicles
# PI3K = settings: cited from earlier work
# [9] = pKa and log P by potentiometric titration; format: physicochemical
# Experimental: GDC-0032 API is a white to off-white solid. It is crystalline as confirmed by the sharp peaks of its XRPD pattern and has a melting point of 258° C. Several physical forms of GDC-0032 free base, including an anhydrous form (Form B), several hydrates, and several solvates, have been identified to date. Form B has a melting point range of 256° C. to 258° C. Form B has been produced consistently in the API process to date. […] The reproducibility and stability of the crystalline form will be monitored during API synthesis and stability. GDC-0032 is non-hygroscopic, with less than 0.2% weight gain at 95% RH in the dynamic moisture sorption experiment.
# [10] = Isothermal TGA dehydration; format: physicochemical
# Experimental: Weight change as a function of temperature was determined by TGA. […] 0.1-2 milligrams of the sample were placed in a DSC pan located on the sample holder. The sample holder was heated in the TGA from 25 to 300° C. at a heating rate of 10° C. min^−1. Dry N2 gas was used for purging. Isothermal experiments were conducted by heating the sample at 10° C./min to the desired temperature and then holding the sample at that temperature for at least 200 minutes.
smiles,measurement,setting,value
C1CCOC1.Cc1nc(-c2cn3c(n2)-c2ccc(-c4cnn(C(C)(C)C(N)=O)c4)cc2OCC3)n(C(C)C)n1 [Form AC],stability in the absence of the solvate solvent,[1],not stable
CC(C)C(=O)C(C)C.Cc1nc(-c2cn3c(n2)-c2ccc(-c4cnn(C(C)(C)C(N)=O)c4)cc2OCC3)n(C(C)C)n1 [Form Z],stability in the absence of the solvate solvent,[1],converts to Form B
Cc1nc(-c2cn3c(n2)-c2ccc(-c4cnn(C(C)(C)C(N)=O)c4)cc2OCC3)n(C(C)C)n1 [Form B],temperature at which the form is preferred/favored in slurry interconversion,[2],≥ 20 °C
same,conversion on slurrying in water,"[3]; water, with and without Tween 80",no conversion to the hydrate
same,physical form after accelerated stability tests,[4]; 40° C. and 75% RH,unchanged
same,form change when exposed to high humidity,[4]; high humidity for at least 6 months,does not exhibit any form change
same,physical form after the DVS experiment,[5],still Form B
same,weight gain in DVS / dynamic moisture sorption experiment,[5],less than 0.3%
C1COCCO1.Cc1nc(-c2cn3c(n2)-c2ccc(-c4cnn(C(C)(C)C(N)=O)c4)cc2OCC3)n(C(C)C)n1.Cc1nc(-c2cn3c(n2)-c2ccc(-c4cnn(C(C)(C)C(N)=O)c4)cc2OCC3)n(C(C)C)n1 [Form AA],stability in the absence of the solvate solvent,[1],not stable
CO.Cc1nc(-c2cn3c(n2)-c2ccc(-c4cnn(C(C)(C)C(N)=O)c4)cc2OCC3)n(C(C)C)n1 [Form A],form obtained on slurrying in the presence of water,[3]; 50° C.,Form D
same,form obtained from water slurry experiment,"[3]; room temperature, after drying",mixture of Form A and Form D
"Cc1nc(-c2cn3c(n2)-c2ccc(-c4cnn(C(C)(C)C(N)=O)c4)cc2OCC3)n(C(C)C)n1 [GDC-0032, 2-(4-(2-(1-isopropyl-3-methyl-1H-1,2,4-triazol-5-yl)-5,6-dihydrobenzo[f]imidazo[1,2-d][1,4]oxazepin-9-yl)-1H-pyrazol-1-yl)-2-methylpropanamide]","solubility in 2,2,2-trifluoroethanol (TFE)",[6],high solubility
same,solubility in various solvents/solvent mixtures,"[6]; 23 listed solvents/mixtures, RT and Tmax 50 or 70° C.","soluble in all except for Ethyl Acetate, Isopropyl acetate, Tetrahydrofuran, Tert-butyl methyl ether, and n-Heptane"
same,dissolution in methanol,[7]; 45° C.,not complete
same,dissolution in methanol,[7]; 55° C.,not complete
same,solubility,"[8]; FaSSIF, pH 6.8, at 37° C.",22 µg/mL
same,solubility,"[8]; FeSSIF, pH 5.0, at 37° C.",270 µg/mL
same,solubility,"[8]; aqueous buffer, 50 mM phosphate buffer, pH 6.5, at room temperature",0.72 µg/mL
same,solubility,"[8]; simulated gastric fluid, 0.1N HCl, pH 1.1, at room temperature",54 µg/mL
same,solubility,[8]; water,1.5 µg/mL
same,physical form conversion in ongoing stability studies for the API,[4],no physical form conversion
same,weight gain in DVS / dynamic moisture sorption experiment,[5],less than 0.2%
same,PI3K activity,PI3K,potent
same,logP,[9],2.5
same,pKa,[9]; weak base,3.19
CC(C)CCO.Cc1nc(-c2cn3c(n2)-c2ccc(-c4cnn(C(C)(C)C(N)=O)c4)cc2OCC3)n(C(C)C)n1 [Form C],temperature at which the form is preferred/favored in slurry interconversion,[2],≤ 15 °C
Cc1nc(-c2cn3c(n2)-c2ccc(-c4cnn(C(C)(C)C(N)=O)c4)cc2OCC3)n(C(C)C)n1.O [Form X],humidity at which Form X reversibly converts to Form Y,[1]; at 20° C.,10-20 % RH
Cc1nc(-c2cn3c(n2)-c2ccc(-c4cnn(C(C)(C)C(N)=O)c4)cc2OCC3)n(C(C)C)n1.O [Form D],time to complete dehydration on the TGA,[10]; isothermal at 60° C.,≤ 40 min
same,time to complete dehydration on the TGA,[10]; isothermal at 100° C.,≤ 15 min
